The results in this text go back to ChEMBL document CHEMBL1130005, “Enantioselective synthesis and antiproliferative properties of an ilmofosine analog, 2'-(trimethylammonio)ethyl 3-(hexadecyloxy)-2-(methoxymethyl)propyl phosphate, on epithelial cancer cell growth” (J Med Chem, 1997).

Holding throughout (type): functional, cell-based
The subject of test [1] is MCF7. As to the kind of experiment: Inhibition of proliferative breast adenocarcinoma cell line MCF-7 after 48-h treatment. To be noted: Homo sapiens, MCF7, 48 h.
Test [2] deals with A-427. Description: Inhibition of large cell lung carcinoma (A427) after 48-h treatment. To be noted: Homo sapiens, A-427, 48 h.
The test system of test [3] is A549. As to the kind of experiment: Inhibition of non-small-cell lung adenocarcinoma (A549) after 48-h treatment. The settings on record: Homo sapiens, A549, 48 h.
The test system of test [4] is A-427. As to the kind of experiment: Inhibition of large cell lung carcinoma (A427). The settings on record: Homo sapiens.
Test [5] has as its system A549. As to the kind of experiment: Inhibition of non-small-cell lung adenocarcinoma (A549). To be noted: Homo sapiens.
In test [6] the test system is MCF7. Description: Inhibition of proliferation of breast adenocarcinoma cell line MCF-7. To be noted: Homo sapiens.

Each structure is given as a SMILES string. Bounds are passed on as bounds.

In the case of `CCCCCCCCCCCCCCCCOC[C@H](COC)COP(=O)([O-])OCC[N+](C)(C)C`, the IC50 was 2 µM in the test on MCF7 [1], 20 µM with A-427 [2] and 7.5 µM in the test on A549 [3].

Consider `CCCCCCCCCCCCCCCCOC[C@@H](COC)COP(=O)([O-])OCC[N+](C)(C)C`, for which the 50% inhibitory concentration (IC50) with A-427 [4] is greater than 20 µM; in the test on A549 [5], 10 µM; with MCF7 [6], 2 µM.

In the case of `CCCCCCCCCCCCCCCCSCC(COC)COP(=O)([O-])OCC[N+](C)(C)C` (racemic) [ILMOFOSINE], the IC50 amounted to 20 µM with A-427 [4], 10 µM in the test with A549 [5] and 2 µM in the test on MCF7 [6].

One may read the IC50 as the point on the concentration scale where inhibition reaches its midpoint.
